According to article PMC11367503, “Exploring galectin interactions with human milk oligosaccharides and blood group antigens identifies BGA6 as a functional galectin-4 ligand” (The Journal of Biological Chemistry, 2024):
Where “and” joins values, the source holds several entries; their conditions need not be identical. Equal entries are not always repeated.

Legend:
human Gal-1 = target: T1, human Gal-1 (Homo sapiens, UniProt P09382); assay: Competitive solid-phase assay (SPA), immobilized asialofetuin, Gal-1; format: binding; settings: mean ± S.D., three independent experiments
T1 construct: made in house; host or cells: Escherichia coli BL21 (DE3)
T1 sequence (P09382 whole entry): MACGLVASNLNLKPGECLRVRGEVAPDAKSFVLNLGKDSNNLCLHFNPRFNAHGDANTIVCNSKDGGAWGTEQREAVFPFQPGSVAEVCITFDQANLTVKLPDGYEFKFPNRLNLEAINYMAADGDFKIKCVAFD
Procedure: (§1) The assay was adapted from Rapoport et al. (2010) ([88]). Briefly, 96-well plates (flat-bottom) were coated with 10 μg/ml asialofetuin (ASF, Sigma-Aldrich) in sodium carbonate buffer (pH 9.6) and incubated overnight at 4 °C. Then, wells were washed three times with 100 μl/well PBS-Tween 0.05% (w/v) and blocked with 100 μl/well PBS-bovine serum albumin (BSA) 2% (1 h, room temperature (RT)) in a humid chamber. Meanwhile, equal volumes of human recombinant Gal-1, -3, -4, -7, and -12 (20–40 μg/ml) in PBS-BSA 0.3% buffer were preincubated with the corresponding inhibitors in serial dilutions (2 h, 37 °C). After washing, galectins were detected using the corresponding antigalectin primary detection antibodies in PBS-BSA 0.3% w/v (1 h at RT). For Gal-1, wells were incubated with an in-house purified 100 ng/ml biotinylated rabbit anti–human Gal-1 polyclonal immunoglobulin G. For Gal-3, -4, and -7, a 1:500 dilution of the corresponding biotinylated anti-human galectin antibodies was used (BAF1154, BAF1227, and MAB13391, respectively, R&D Systems). For Gal-12, a rabbit anti-human Gal-12 polyclonal antibody (Santa Cruz Biotechnology, 1:700) was used. For Gal-1, -3, -4, and -7, plates were rinsed three times before adding 0.33 μg/ml horseradish peroxidase (HRP)-labeled streptavidin (Sigma-Aldrich) for 30 min. For Gal-12, an anti-rabbit secondary antibody conjugate coupled to HRP was incubated for 1 h at RT in PBS-BSA 0.3% w/v. After washing, 100 μl TMB solution (0.1 mg/ml tetramethylbenzidine and 0.06% H2O2 in citrate-phosphate buffer, pH 5.0) was added to plates. The reaction was stopped by adding a 2N H2SO4 solution. Absorbance was determined at 450 nm in a Multiskan MS microplate reader (Thermo Fisher Scientific).

human Gal-3 = target: T2, human Gal-3 (Homo sapiens, UniProt P17931); assay: Competitive solid-phase assay (SPA), immobilized asialofetuin, Gal-3; format: binding; settings: mean ± S.D., three independent experiments
T2 construct: made in house; host or cells: Escherichia coli BL21 (DE3)
T2 sequence (P17931 whole entry): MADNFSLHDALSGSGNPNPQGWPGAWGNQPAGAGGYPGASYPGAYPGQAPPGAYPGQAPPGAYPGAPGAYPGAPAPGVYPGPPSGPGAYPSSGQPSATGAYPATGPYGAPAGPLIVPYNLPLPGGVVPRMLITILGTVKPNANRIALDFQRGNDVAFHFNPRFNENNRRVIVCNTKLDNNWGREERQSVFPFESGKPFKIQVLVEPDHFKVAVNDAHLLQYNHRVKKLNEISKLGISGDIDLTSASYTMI
Procedure: as §1

human Gal-4 [1] = target: T3, human Gal-4 (Homo sapiens, UniProt P56470); assay: Competitive solid-phase assay (SPA), immobilized asialofetuin, Gal-4; format: binding; settings: mean ± S.D., three independent experiments
T3 construct: His6-SUMO (N, cleaved yes); made in house; host or cells: Escherichia coli BL21 (DE3)
T3 sequence (P56470 1-323): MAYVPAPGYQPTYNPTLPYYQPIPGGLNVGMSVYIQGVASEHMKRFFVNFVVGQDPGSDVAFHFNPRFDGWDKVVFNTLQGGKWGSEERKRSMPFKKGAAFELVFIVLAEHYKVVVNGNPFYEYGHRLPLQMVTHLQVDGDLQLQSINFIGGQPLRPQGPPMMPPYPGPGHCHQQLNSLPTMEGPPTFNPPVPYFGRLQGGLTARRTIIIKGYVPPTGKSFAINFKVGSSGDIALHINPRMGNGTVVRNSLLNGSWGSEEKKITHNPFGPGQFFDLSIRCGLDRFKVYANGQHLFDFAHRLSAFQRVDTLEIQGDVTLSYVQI
Procedure: as §1

human Gal-7 = target: T4, human Gal-7 (Homo sapiens, UniProt P47929); assay: Competitive solid-phase assay (SPA), immobilized asialofetuin, Gal-7; format: binding; settings: competitive SPA, immobilized asialofetuin; mean ± S.D., three independent experiments
T4 construct: made in house; host or cells: Escherichia coli BL21 (DE3)
T4 sequence (P47929 whole entry): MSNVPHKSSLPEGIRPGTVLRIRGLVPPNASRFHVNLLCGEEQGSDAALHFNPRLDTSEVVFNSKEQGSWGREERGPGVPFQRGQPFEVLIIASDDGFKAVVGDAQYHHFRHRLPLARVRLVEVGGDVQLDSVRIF
Procedure: as §1

human Gal-12 = target: T5, human Gal-12 (Homo sapiens, UniProt Q96DT0); assay: Competitive solid-phase assay (SPA), immobilized asialofetuin, Gal-12; format: binding; settings: mean ± S.D., three independent experiments
T5 construct: To obtain full-length human Gal-12, we adapted our previously optimized procedure for murine Gal-12; made in house; host or cells: Escherichia coli Rosetta 2 (DE3)
T5 sequence (Q96DT0 1-336): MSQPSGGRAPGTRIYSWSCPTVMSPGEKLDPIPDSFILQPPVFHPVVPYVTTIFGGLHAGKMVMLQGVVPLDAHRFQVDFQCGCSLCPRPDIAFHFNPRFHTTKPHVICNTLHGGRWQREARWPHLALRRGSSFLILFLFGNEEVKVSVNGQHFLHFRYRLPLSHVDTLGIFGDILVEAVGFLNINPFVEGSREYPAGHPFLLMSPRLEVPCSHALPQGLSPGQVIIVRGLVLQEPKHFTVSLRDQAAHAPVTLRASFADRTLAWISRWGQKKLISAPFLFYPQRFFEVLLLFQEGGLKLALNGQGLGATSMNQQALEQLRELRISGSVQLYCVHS
Procedure: as §1

human Gal-4 [2] = target: T3, human Gal-4; assay: Isothermal titration calorimetry (ITC), Gal-4; format: binding; settings: Gal-4, PBS, 298 K
Procedure: All ITC experiments were performed by using a NanoITC (TA Instruments) under previously optimized conditions ([89]). A typical titration involved 20 injections at 300 s intervals of 2.5 μl aliquots of a 2.5 to 10 mM ligand solution into the sample cell (volume 200 μl) containing the different galectins (30–100 μM). The solutions were prepared by dissolving the glycan ligands in degassed PBS buffer at 298 K. The titration cell was continuously stirred at 300 rev/min. The heats of dilution of the ligands in the buffer were subtracted from the titration data. […] Fitting was performed using the Nano Analyze software (TA Instruments; https://www.tainstruments.com/itcrun-dscrun-nanoanalyze-software/) to determine association constants (Ka) and the enthalpy change (ΔH). No reliable fit of the thermodynamic parameters could be obtained for binding affinities above 80 μM.

human Gal-4 [3] = target: T3, human Gal-4; assay: Inhibition of Gal-4-driven IL-6 secretion by activated PBMCs (IL-6 ELISA); format: cell-based; settings: Gal-4 50 or 100 μg/ml; BGA6 0.5, 1, 2.5 and 5 mM; 72 h; anti-CD3/CD28 activated PBMCs
Procedure: (§2) PBMCs were isolated from anonymous healthy volunteer buffy coats (Fundación Hemocentro Blood Bank, Buenos Aires, Argentina), using Ficoll-Hypaque density gradient (Lymphoprep). The samples were then centrifuged at 1500 rpm for 25 min, and the interface corresponding to mononuclear cells was carefully removed and diluted with PBS supplemented with 2% fetal bovine serum. To reduce platelet contamination, three washing steps with PBS 2% fetal bovine serum were performed, and freshly isolated PBMCs were subsequently resuspended in complete RPMI medium. To obtain a bead to T-cell ratio of 1:1, approximately 16 × 10^4 PBMCs were activated with 2 μl of Dynabeads Human T-Activator CD3/CD28 (Gibco). After 24 h stimulation at 37 °C and 5% CO2, cells were incubated with human recombinant Gal-4 (25, 50, or 100 μg/ml) in the absence or presence of BGA6 (0.5, 1, 2.5, and 5 mM) for an additional time period of 72 h.
(§3) Human IL-6 was determined in supernatants from activated PBMCs exposed or not to Gal-4 in the absence or presence of BGA6 using specific ELISA kits (BD Biosciences), according to the manufacturer's instructions. Briefly, 96-well plates (Costar) were coated with capture antibody during 18 h at 4 °C. […] Reaction was stopped with 2N H2SO4, and the absorbance was measured at 450 nm using a plate spectrophotometer (Multiskan).

Gal-1 = target: Gal-1; design: method as in PMID 15476813; settings: at 298 K; read-out: dissociation constant reported for Gal-1/LacNAc interactions; cited from earlier work
human PBMCs = assay: IL-6 secretion by anti-CD3/CD28-activated PBMCs cultured with Gal-4 (IL-6 ELISA); format: cell-based; settings: Gal-4 25, 50 or 100 μg/ml, 72 h
Procedure: as §2, §3

For CC(=O)NC1C(OC2C(O)C(CO)OC(OC3C(CO)OC(O)C(O)C3O)C2OC2OC(C)C(O)C(O)C2O)OC(CO)C(O)C1O (stereo not shown) [BGA6, blood group A antigen tetraose 6], the IC50 (human Gal-1) was 5000 µM and 5020 µM, the IC50 (human Gal-3) was 1500 ± 300 µM and the IC50 (human Gal-4 [1]) was 200 ± 100 µM. For the same molecule, the IC50 (human Gal-7) was 5400 ± 700 µM, the IC50 (human Gal-12) was 27100 ± 1000 µM and the “-TΔS” value (human Gal-4 [2]) was 1.77 ± 0.14 kcal/mol. The ΔH (human Gal-4 [2]) was -7.65 ± 0.72 kcal/mol, the Kd (human Gal-4 [2]; n fixed to 1.00) was 51 ± 3 µM and the “Gal-4-driven IL-6 secretion by human activated PBMCs in presence of BGA6” value (human Gal-4 [3]) was “effectively suppressed”.

CC(=O)NC1C(O)OC(CO)C(OC2OC(CO)C(O)C(O)C2O)C1O (stereo not shown) [LacNAc, N-acetyllactosamine] showed an IC50 (human Gal-1) of 1300 ± 100 µM, an IC50 (human Gal-3) of 2000 ± 200 µM and an IC50 (human Gal-4 [1]) of 25800 µM. For the same molecule, the IC50 (human Gal-7) was 2500 µM and 2490 µM, the IC50 (human Gal-12) was 36000 ± 900 µM and the Kd (Gal-1) was 76 µM.

B1: Gal-4: recombinant full-length human galectin-4, tandem-repeat type lectin expressed in E. coli (protein)
chain: T3 sequence (P56470 1-323)
modifications: left off: His6, N-terminal, cleaved | SUMO, N-terminal, cleaved
notes: recombinant full-length human galectin-4, tandem-repeat type lectin expressed in E. coli
For B1, the “secretion of IL-6 by human-activated T lymphocytes in PBMCs” value (human PBMCs) was “significant and dose-dependent increase”.
